Test results from patent US10045951B2, “Flaxseed lignan complex and its use thereof” (priority 2007, dated 2018).
Where a SMILES comes first, the peptide text is derived from it. The star is where a group is joined. Cbz = O=C(OCc1ccccc1)*

Columns and labels:
LKR cells = assay: MTS cell proliferation assay with proteasomal inhibitor; type: cell-based, mouse; settings: one day post incubation
Experimental: FIG. 35: Cancer cell proliferation is inhibited by a known pharmacological proteasome inhibitor. LKR cells were incubated with MG 132, a known pharmacological proteasomal inhibitor and cell proliferation was measured using the MTS assay at one day post incubation. There was a dose dependent decrease in cell proliferation with increasing doses of MG 132.
LKR cells derived from an explant of a pulmonary tumor from an activated K-rasG12D mutant mouse were incubated with differing concentrations of MG 132, a known pharmacological proteasomal inhibitor to assess for cell proliferation using the MTS assay.

TC-1 = assay: MTS cell proliferation assay with FS lignans: TC-1; type: cell-based; settings: 10 μM for 16 hours
Experimental: (§1) FIG. 37: FS lignans EL and ED, and their precursor SDG, inhibit cell proliferation in tumor cell lines. Tumor cell lines (LKR, TC-1, and LLC) were incubated with 10 μM or 25 μM of SDG, EL, or ED for 16 hours and processed for MTS assay to measure cell proliferation. The % inhibition of cell growth compared to untreated (no lignan) cell lines was calculated. Bars represent means±SEM. n=3 readings per group.
(§2) Cell proliferation was assessed at this time (time 0), and 24 and 48 hours later.

LLC = assay: MTS cell proliferation assay with FS lignans: LLC; type: cell-based; settings: 10 μM for 16 hours
Experimental: as §1, §2

[1] = tested on: streptozotosin-induced Diabetes mellitus; settings: SDG-treated animals; cited from earlier work
LKR = assay: MTS cell proliferation assay with FS lignans: LKR; type: cell-based; settings: 10 μM for 16 hours
Experimental: as §1, §2

[2] = tested on: alveolar epithelial cells (A549); assay: H2O2-induced cell death of alveolar epithelial cells (LDH release); type: cell-based; settings: 10, 50, 100, 200, 500 uM; 10 mM H2O2 for 1-6 hours
Experimental: In addition, using the same assay system to detect cell death, LDH release, an evaluation of the efficacy of the lignan enterodiole, ED, to protect alveolar epithelial cells (A549) from oxidant-induced cell death was made. In these experiments, cells were pre-incubated withincreasing concentrations of ED (10, 50, 100, 200, 500 uM) and challenged with hydrogen peroxide (10 mM H2O2) for 1-6 hours. […] (FIG. 20).

[3] = Lignan content in murine plasma (LC/MS/MS); type: in vivo, mice; settings: oral, 10 % FS (flaxseed) in diet, FS-fed (10% FS) mouse groups, 4 months post-irradiation, read-out: circulating plasma level
Experimental: Circulating plasma levels of the flaxseed lignans ED and EL at time of sacrifice (4 months' post-XRT) were determined by liquid chromatography tandem mass spectrometry (LC/MS/MS) using commercially available standards in 95% purity (Chromadex, Inc., Santa Ana, Calif.) shown in FIG. 39. Plasma flaxseed lignan levels were evaluated in 3 randomly selected mice per group (irradiated mice; diet initiated at −3, 0, +2, +4, +6 weeks of radiation exposure).
Detection of flaxseed metabolites in the circulation using analytical methods was used to confirm that mice were feeding on the flaxseed-supplemented diet to reach physiologically relevant levels. Mice were maintained on control (0% FS) or treatment (10% FS) diets given ad libitum for either three weeks prior to XRT and for the entire duration of the experiment (4 months), or started on the day of XRT or 2,4,6 weeks post XRT and continued for 4 months (see scheme on FIG. 38). Plasma evaluation for lignan detection was done at 16 weeks post XRT.

ROS generation in PMVEC = assay: ROS generation (H2DCF) by PMVEC in simulated I/R flow chamber; type: cell-based, mouse; settings: 5 μM for 5 h prior to I/R
Experimental: Mouse pulmonary endothelial cells (PMVEC) were grown on coverslips and placed in a Warner chamber and perfused with culture medium for 24 h at a flow rate of 10 dyn/cm^2. Cells were incubated with the Lignan ED (5 μM) for 5 h prior to I/R loaded with H2DCF to monitor ROS immediately before the experiment. I/R in this chamber is simulated by abrupt cessation of perfusate flow and its reinstatement through the chamber 5 minutes later. The images are in pseudocolor with intensity shown on the side bar.

proteasomal activity = assay: Proteasomal inhibition in GFPu-1 cells (anti-GFP immunoblotting); type: cell-based, human; settings: for amount of proteasomal inhibition as compared to Lactacystin and MG 132 / proteasomal inhibition compared to untreated cells (GFP expression): 16 hours; for proteasomal inhibition compared to untreated cells (GFP expression): EL 1 μM to 100 μM
Experimental: FIG. 36: Proteasomal inhibition with EL and ED as compared to known pharmacologic inhibitors Lactacystin and MG 132. GFPu-1 kidney epithelial cells were treated for 16 hours with EL and ED at differing concentrations. Proteasomal inhibition was detected by Western blotting using anti-GFP antibody with increased proteasomal inhibition expressed as accumulation of GFP. Representative Western blots are shown with β actin reference (Top panels). Densitometry was performed with β actin normalization, expressed as fold over untreated control±SEM, n=2-6 (Bottom panel). Dotted line represents control expression of GFP. *p<0.005 vs. untreated, **p<0.01 vs. untreated.
GFP^u-1 cells were used to investigate the impact of one of the flaxseed lignans, enterodiole (ED) on proteasomal activity. GFP^u-1 is an human kidney epithelial (HEK)-derived, stably transfected cell line expressing a short degron (CL1) tagged to green fluorescent protein (GFP) as described […].
Using an in vitro means of quantifying proteasomal inhibition with GFPu-1 cells, differing concentrations of the FS lignans EL and ED were compared with known pharmacologic proteasomal inhibitors MG 132 and Lactacystin, incubated for 16 hours prior to processing. Western blotting was performed on whole […] cell lysates using anti-GFP antibodies to quantify the amount of GFP expressed as a marker of the amount of proteasomal inhibition (FIG. 36, Top panels).

HO-1 = HO-1 immunoblotting in pulmonary microvascular endothelial cells (PMVEC); type: cell-based, mouse; settings: 10 μM; 1,2,4,6,8 and 10 hours
Experimental: For mechanistic studies, there is a need to establish whether purified lignans (in appropriate, “pharmacologically achievable” concentrations) have similar effects in cell culture as lignan complex diets have in animals. HO-1 levels were thus evaluated by immunoblotting in primary cultures of pulmonary microvascular endothelial cells (PMVEC) isolated from mouse lungs. PMVEC were incubated with the lignan enterodiole (ED) in micromolar concentrations (10 µM) similar to that seen in mouse plasma levels. Cells were incubated with ED for 1,2,4,6,8 and 10 hours.

Nrf2 = assay: Nuclear Nrf2 levels in PMVEC; type: cell-based, mouse; settings: 10 μM
Description: Nrf2 was detected with our own rabbit polyclonal Antibody (Clone MCS-1a).

PMVEC = assay: tBHQ-induced cell death of PMVEC (LDH release); type: cell-based, mouse; settings: pretreatment 50 μM; 10 μM tBHQ
Experimental: Given the in vivo data hereinabove, showing protection of lungs from oxidative injury after flaxseed feeding, a confirmation of similar protection of cells in vitro was desired. Relatively high doses of the electrophile tert-butylhydroquinone (tBHQ) were used to oxidatively stress the cells. […] However, pretreatment of cells with 50 µM of the lignan Enterolactone (EL) was sufficient to protect cells up to 50% from tert-butylhydroquinone (tBHQ)-induced cell death (FIG. 19).

concentration at 16 weeks post XRT [3] | Compound | cell proliferation inhibition (MTS) (LKR cells) | cancer cell proliferation rate (MTS) (TC-1) | cancer cell proliferation rate (MTS) (LLC) | diabetes [1] | serum and pancreatic lipid peroxidation [1] | cancer cell proliferation rate (MTS) (LKR) | protection from oxidant-induced cell death (LDH release) [2] | ROS generation (ROS generation in PMVEC) | amount of proteasomal inhibition as compared to Lactacystin and MG 132 (proteasomal activity) | proteasomal inhibition compared to untreated cells (GFP expression) (proteasomal activity) | GFP levels (proteasomal inhibition) (proteasomal activity; Example 15) | HO-1 levels (HO-1) | nuclear Nrf2 levels (Nrf2) | protection from tBHQ-induced cell death (PMVEC)
– | CC(C)C[C@@H](C=O)NC(=O)[C@H](CC(C)C)NC(=O)[C@H](CC(C)C)NC(=O)OCc1ccccc1 [MG 132] (Cbz-Leu-Leu-Leu-aldehyde) | clear dose dependent response | – | – | – | – | – | – | – | – | – | – | – | – | –
– | COc1cc(C[C@@H](CO[C@@H]2O[C@H](CO)[C@@H](O)[C@H](O)[C@H]2O)[C@H](CO[C@@H]2O[C@H](CO)[C@@H](O)[C@H](O)[C@H]2O)Cc2ccc(O)c(OC)c2)ccc1O [SDG, secoisolariciresinol diglucoside] | – | significant decrease | significant decrease | prevention of diabetes | decrease | significant decrease | – | – | – | – | – | – | – | –
14 to 405 ng/mL | OC[C@H](Cc1cccc(O)c1)[C@H](CO)Cc1cccc(O)c1 [ED, enterodiol] | – | significant decrease | significant decrease | – | – | significant decrease | significantly protected | near complete abrogation | comparable to only Lactacystin, not MG 132 | significant amount of proteasomal inhibition | increased GFP levels in a dose-dependent fashion | robust, time-dependent induction | time-dependent increase | –
103 to 325 ng/mL | O=C1OC[C@H](Cc2cccc(O)c2)[C@H]1Cc1cccc(O)c1 [EL, enterolactone] | – | significant decrease | significant decrease | – | – | significant decrease | – | – | no significant difference | significant increase | – | – | – | up to 50%
